Test results from patent publication US6514981B1, “Methods of modulating tyrosine protein kinase function with indolinone compounds” (Sugen, Inc., priority 1998, dated 2003).

What was measured:
[1] = target: T1, human FLK-1 (Homo sapiens, UniProt P35968); test: FLK-1 receptor phosphorylation assay in cells (ELISA); assay type: cell-based; settings: NIH3T3 C7#3 cells, VEGF stimulation
[2] = target: T1, human FLK-1; test: FLK-1 autophosphorylation assay in vitro (ELISA); assay type: biochemical; parameters: host or cells: FLK-1/NIH cells (NIH fibroblast line); lysate captured on L4 or E38 anti-FLK-1 antibody; settings: FLK-1 autophosphorylation in vitro, immobilized FLK-1 from FLK-1/NIH cell lysate
Source text: The following protocol describes the ELISA procedures used to determine the FLK-1 autophosphorylation activity in vitro. The procedure also describes the protocol for the initial screening of indolinone compounds. 2. FLK-1/NIH cells: NIH fibroblast line overexpressing human FLK-1 clone 3 (MPI, Martinsried, Germany). 6. L4 or […]: monoclonal antibody specific for FLK-1; purified by protein-A agarose affinity chromatography (SUGEN, Inc., Redwood City, Calif.). 2. Remove the medium and wash the cells twice with PBS. Lyse with HNTG lysis buffer. Collect all lysates and mix them on a vortex for 20-30 seconds. 1. Coat Corning 96-well ELISA plates with 2 ug/well of purified L4 (or […]) in 100 μL of PBS overnight at 4° C. 5. Dilute lysate in PBS to give final concentration of 50 ug/100 μL. Add 100 μL of diluted lysate per well. Incubate with shaking at 4° C. overnight. 7. Add 80 μL of kinase buffer to the wells (negative control wells get 90 μL). 8. Dilue compounds (normally 10 fold) into wells of a polypropylene plate containing 20% DMSO in TBS. 9. Add 10 μL of the prediluted compounds to the ELISA wells containing immobilized FLK-1 and shake. Control wells receive no compound. […] When the color in the positive control wells reaches an absorbance of about 0.35-0.4, read plates on Dynatech MR7000 ELISA reader. The IC50 values measured in the above assay for the compound of formula VI are depicted in Table 1: […]
Target sequence in this assay (P35968 20-1356): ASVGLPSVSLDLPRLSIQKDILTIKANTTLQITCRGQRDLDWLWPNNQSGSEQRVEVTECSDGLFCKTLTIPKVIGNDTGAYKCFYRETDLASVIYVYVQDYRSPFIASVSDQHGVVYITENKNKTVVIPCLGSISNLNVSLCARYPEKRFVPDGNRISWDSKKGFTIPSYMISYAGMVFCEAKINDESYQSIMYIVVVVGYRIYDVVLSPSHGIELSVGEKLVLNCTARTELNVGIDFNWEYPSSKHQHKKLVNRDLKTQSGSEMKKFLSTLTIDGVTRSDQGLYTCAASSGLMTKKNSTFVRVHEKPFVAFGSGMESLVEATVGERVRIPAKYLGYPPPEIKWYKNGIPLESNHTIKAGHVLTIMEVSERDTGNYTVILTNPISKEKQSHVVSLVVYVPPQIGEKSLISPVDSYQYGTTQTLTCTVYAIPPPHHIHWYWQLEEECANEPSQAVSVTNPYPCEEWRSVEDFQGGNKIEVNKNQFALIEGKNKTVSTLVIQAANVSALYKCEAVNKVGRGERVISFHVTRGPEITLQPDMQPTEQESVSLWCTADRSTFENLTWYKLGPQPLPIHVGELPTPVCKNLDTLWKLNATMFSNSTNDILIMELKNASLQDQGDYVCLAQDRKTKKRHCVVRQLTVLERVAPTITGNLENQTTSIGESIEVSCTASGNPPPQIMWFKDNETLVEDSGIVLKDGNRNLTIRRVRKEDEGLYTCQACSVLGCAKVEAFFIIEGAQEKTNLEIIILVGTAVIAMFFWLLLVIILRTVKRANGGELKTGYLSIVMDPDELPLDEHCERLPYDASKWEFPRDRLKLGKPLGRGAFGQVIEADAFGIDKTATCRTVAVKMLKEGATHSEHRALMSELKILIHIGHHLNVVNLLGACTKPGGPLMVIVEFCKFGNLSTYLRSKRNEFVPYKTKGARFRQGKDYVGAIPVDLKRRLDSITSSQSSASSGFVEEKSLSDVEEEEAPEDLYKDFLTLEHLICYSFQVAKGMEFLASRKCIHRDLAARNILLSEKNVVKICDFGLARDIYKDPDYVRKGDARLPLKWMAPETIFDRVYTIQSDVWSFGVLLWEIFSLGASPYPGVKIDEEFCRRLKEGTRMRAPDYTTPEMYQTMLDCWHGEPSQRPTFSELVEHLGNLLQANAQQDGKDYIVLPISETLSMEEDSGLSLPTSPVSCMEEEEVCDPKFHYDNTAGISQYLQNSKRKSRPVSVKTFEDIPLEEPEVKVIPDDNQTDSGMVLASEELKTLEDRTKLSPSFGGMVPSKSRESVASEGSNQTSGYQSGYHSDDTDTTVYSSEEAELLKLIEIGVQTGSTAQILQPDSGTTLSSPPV

[3] = target: EGFR (Homo sapiens, UniProt P00533); test: Biochemical EGFR assay (ELISA, A431 cell lysate); parameters: Add 7 μg A431 cell lysate per well (EGFR source); endogenous in cells; host or cells: A431 cell lysate, captured on 05-101 anti-EGFR antibody; settings: A431 cell lysate as EGFR source
Sequence of EGFR (P00533 25-1210): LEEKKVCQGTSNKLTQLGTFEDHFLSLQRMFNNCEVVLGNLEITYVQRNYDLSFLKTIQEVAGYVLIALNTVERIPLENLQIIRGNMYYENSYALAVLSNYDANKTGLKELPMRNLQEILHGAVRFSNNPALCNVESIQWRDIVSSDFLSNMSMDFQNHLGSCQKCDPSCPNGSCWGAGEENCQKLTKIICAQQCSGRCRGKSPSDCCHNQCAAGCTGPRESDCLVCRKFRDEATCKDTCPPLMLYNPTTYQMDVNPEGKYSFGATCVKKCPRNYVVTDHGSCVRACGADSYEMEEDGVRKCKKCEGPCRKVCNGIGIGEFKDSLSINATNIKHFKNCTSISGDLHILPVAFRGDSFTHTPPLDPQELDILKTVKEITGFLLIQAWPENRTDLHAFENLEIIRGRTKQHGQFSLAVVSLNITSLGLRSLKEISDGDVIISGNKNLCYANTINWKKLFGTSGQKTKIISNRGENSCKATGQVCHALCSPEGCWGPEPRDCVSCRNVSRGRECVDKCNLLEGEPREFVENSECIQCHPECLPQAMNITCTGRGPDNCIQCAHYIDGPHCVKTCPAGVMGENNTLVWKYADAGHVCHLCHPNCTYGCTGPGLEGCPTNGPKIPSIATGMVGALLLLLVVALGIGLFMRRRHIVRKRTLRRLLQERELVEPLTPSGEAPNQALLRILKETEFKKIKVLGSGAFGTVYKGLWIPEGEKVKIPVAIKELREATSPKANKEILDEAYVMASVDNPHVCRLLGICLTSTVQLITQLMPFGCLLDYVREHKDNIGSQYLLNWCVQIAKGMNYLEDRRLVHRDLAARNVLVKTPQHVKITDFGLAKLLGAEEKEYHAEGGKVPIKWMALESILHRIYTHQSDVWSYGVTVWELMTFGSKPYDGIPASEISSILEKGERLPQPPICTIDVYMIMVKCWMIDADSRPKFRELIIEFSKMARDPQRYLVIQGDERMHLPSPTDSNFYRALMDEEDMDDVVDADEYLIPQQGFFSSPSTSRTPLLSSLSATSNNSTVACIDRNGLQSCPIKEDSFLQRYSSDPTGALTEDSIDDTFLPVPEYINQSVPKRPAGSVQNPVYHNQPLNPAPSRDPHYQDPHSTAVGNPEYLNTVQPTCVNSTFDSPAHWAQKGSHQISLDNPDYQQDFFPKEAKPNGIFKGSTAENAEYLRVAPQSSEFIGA
Source text: The following protocol describes the procedures used to analyze protein tyrosine kinase activity on the EGFR in an Elisa. The procedure also describes the protocol for the initial screening of drugs for inhibition or activation of protein tyrosine kinase activity.
A431 cells are available from a variety of commercial sources and may be used lysed using conventional methods known to those skilled in the art or as described for lysis of the 3T3 cells in the EGF cellular assay described herein. −80° C., 1 mL aliquots
1. Coat Corning 96-well elisa plates with 0.5 μg per well 05-101 antibody. Bring final volume to 100 μL per well with PBS. Coat plates overnight at 4° C.
5. Add 7 μg A431 cell lysate per well (EGFR source). Add PBS to final volume of 100 μL per well. Incubate 30 minutes while shaking.
7. At this point, drugs or extracts are added to the wells. Dilute drugs/extracts 1:100 (unless specified otherwise) in TBS+10% DMSO in 96-well polypropylene plates. Add 120 μL TBS to ELISA plate containing captured EGFR. […] Incubate plate 30 minutes while shaking.
8. […] (150 μL final volume in well with 3 μM ATP/5 mM MnCl2 final concentration in well.) Incubate 5 minutes while shaking vigorously.
9. […]
17. Read assay on Dynatech MR7000 elisa reader.
The IC50 values measured in the above assay for the compound of formula VI are depicted in Table 2: […]

IC50 [1]: 4.84 µM
IC50 [2]: > 50 µM
IC50 [3]: > 50 µM
SMILES: Cc1cc(/C=C2/C(=O)Nc3ccccc32)c(C)c2c1[nH]c1ccccc12 [VI]
